This data set concerns CCRIS mutagenicity, Ames/micronucleus/aberration tests. The experiment in a line: CCRIS mutagenicity studies.
Where [1] appears, read: End Point: In vitro micronucleus, Test System: Human lymphoblastoid TK6 cells, Metabolic Activation: None.
The mark [2] stands for this setting: Test System: AMES SALMONELLA TYPHIMURIUM, Strain/Indicator: TA100, Metabolic Activation: NONE, Method: STANDARD PLATE.
Where [3] appears, read: Test System: AMES SALMONELLA TYPHIMURIUM, Strain/Indicator: TA98, Metabolic Activation: NONE, Method: PREINCUBATION
[4] abbreviates: Test System: AMES SALMONELLA TYPHIMURIUM, Strain/Indicator: TA100, Metabolic Activation: NONE, Method: PREINCUBATION
The mark [5] stands for this setting: Test System: AMES SALMONELLA TYPHIMURIUM, Strain/Indicator: TA1535, Metabolic Activation: NONE, Method: PREINCUBATION
Setting [6] is: Test System: AMES SALMONELLA TYPHIMURIUM, Strain/Indicator: TA1537, Metabolic Activation: NONE, Method: PREINCUBATION

Each structure is given as a SMILES string. Activity calls are given as the source filed them. The rule behind the calls is not given here.

As to `CC[C@@]1(O)C(=O)OCc2c1cc1n(c2=O)Cc2cc3ccccc3nc2-1`, the mutagenic call was “active; positive (no dose response; toxicity may play a role)” under setting [1]; “active; positive” (End Point: In vivo micronucleus, Test System: Peripheral blood reticulocytes, Species: Mouse, Strain/Sex: CD2F1, Route: Oral); “active; positive” (End Point: In vivo micronucleus, Test System: Peripheral blood reticulocytes, Species: Mouse, Strain/Sex: Muta Mouse, Route: Oral); “active; positive” (Test System: CHINESE HAMSTER V-79, Strain/Indicator: V-79 (HPRT)/6-THIOGUANINE, Metabolic Activation: NONE); “inactive; negative” (Test System: LacZ plasmid mouse (C57BL/6J transgenic), Strain/Indicator: LacZ Mutant frequency, Method: Bone marrow and liver harvested 35 days after last dose); “inactive; negative” (Test System: LacZ transgenic mouse (Muta Mouse), Strain/Indicator: LacZ Mutant frequency, Method: Bone marrow and liver harvested 35 days after last dose). The mutagenic call (Test System: LacZ transgenic mouse (Muta Mouse), Strain/Indicator: LacZ Mutant frequency, Method: Liver and kidney harvested 37 days after last dose) was “inactive; negative”.
Consider `C1CC2OC2CCC2OC12` (centres undefined), for which the mutagenic call runs as follows: under setting [2], “inactive; negative”; (Test System: AMES SALMONELLA TYPHIMURIUM, Strain/Indicator: TA1535, Metabolic Activation: NONE, Method: STANDARD PLATE) “inactive; negative”.
Take `O=c1[nH]cc(F)c(=O)[nH]1`: the mutagenic call (End Point: IN VITRO MICRONUCLEUS, Test System: CHL/IU CELLS, Metabolic Activation: NONE) is “active; positive”; the mutagenic call (End Point: IN VIVO CHROMOSOMAL ABERRATIONS, Test System: BONE MARROW CELLS, Species: MOUSE, Strain/Sex: SWISS/MALE, FEMALE, Route: IP) was “active; positive (aberrant metaphases)”; the mutagenic call (End Point: IN VIVO MICRONUCLEUS, Test System: BLOOD ERYTHROCYTES, Species: MOUSE, Strain/Sex: CD-1/MALE, Route: INTRAPERITONEAL INJECTION) is “active; positive (at highest dose)”; the mutagenic call (End Point: IN VIVO MICRONUCLEUS, Test System: BONE MARROW POLYCHROMATIC ERYTHROCYTES, Species: MOUSE, Strain/Sex: SWISS/MALE, FEMALE, Route: IP) is “active; positive”; the mutagenic call under setting [1] was “active; positive (p<0.001)”; the mutagenic call (End Point: In vivo micronucleus, Test System: Micronucleated hepatocytes, Species: Rat, Strain/Sex: F344/Male, Route: Intraperitoneal) is “inactive; negative”. Besides, the mutagenic call is “inactive; negative” (Test System: AMES SALMONELLA TYPHIMURIUM, Strain/Indicator: TA98, Metabolic Activation: HAMSTER, LIVER, S-9, AROCLOR 1254 (10%), Method: PREINCUBATION); “inactive; negative” under setting [3]; “inactive; negative” (Test System: AMES SALMONELLA TYPHIMURIUM, Strain/Indicator: TA98, Metabolic Activation: NONE, Method: STANDARD PLATE); “inactive; negative” (Test System: AMES SALMONELLA TYPHIMURIUM, Strain/Indicator: TA98, Metabolic Activation: RAT, LIVER, S-9, AROCLOR 1254 (10%), Method: PREINCUBATION); “inactive; negative” (Test System: AMES SALMONELLA TYPHIMURIUM, Strain/Indicator: TA98, Metabolic Activation: S-9, Method: PREINCUBATION); “inactive; negative” (Test System: AMES SALMONELLA TYPHIMURIUM, Strain/Indicator: TA98, Metabolic Activation: S-9, Method: STANDARD PLATE). For the same compound, the mutagenic call (Test System: AMES SALMONELLA TYPHIMURIUM, Strain/Indicator: TA100, Metabolic Activation: HAMSTER, LIVER, S-9, AROCLOR 1254 (10%), Method: PREINCUBATION) is “inactive; negative”; the mutagenic call under setting [4] is “inactive; negative”; the mutagenic call under setting [2] was “inactive; negative”; the mutagenic call (Test System: AMES SALMONELLA TYPHIMURIUM, Strain/Indicator: TA100, Metabolic Activation: RAT, LIVER, S-9, AROCLOR 1254 (10%), Method: PREINCUBATION) is “inactive; negative”; the mutagenic call (Test System: AMES SALMONELLA TYPHIMURIUM, Strain/Indicator: TA100, Metabolic Activation: S-9, Method: PREINCUBATION) is “inactive; negative”; the mutagenic call (Test System: AMES SALMONELLA TYPHIMURIUM, Strain/Indicator: TA100, Metabolic Activation: S-9, Method: STANDARD PLATE) was “inactive; negative”. For the same compound, the mutagenic call reads like this: (Test System: AMES SALMONELLA TYPHIMURIUM, Strain/Indicator: TA102, Metabolic Activation: NONE, Method: STANDARD PLATE) “inactive; negative”; (Test System: AMES SALMONELLA TYPHIMURIUM, Strain/Indicator: TA1535, Metabolic Activation: HAMSTER, LIVER, S-9, AROCLOR 1254 (10%), Method: PREINCUBATION) “inactive; negative”; under setting [5], “inactive; negative”; (Test System: AMES SALMONELLA TYPHIMURIUM, Strain/Indicator: TA1535, Metabolic Activation: RAT, LIVER, S-9, AROCLOR 1254 (10%), Method: PREINCUBATION) “inactive; negative”; (Test System: AMES SALMONELLA TYPHIMURIUM, Strain/Indicator: TA1537, Metabolic Activation: HAMSTER, LIVER, S-9, AROCLOR 1254 (10%), Method: PREINCUBATION) “inactive; negative”; under setting [6], “inactive; negative”. The mutagenic call reads like this: (Test System: AMES SALMONELLA TYPHIMURIUM, Strain/Indicator: TA1537, Metabolic Activation: NONE, Method: STANDARD PLATE) “inactive; negative”; (Test System: AMES SALMONELLA TYPHIMURIUM, Strain/Indicator: TA1537, Metabolic Activation: RAT, LIVER, S-9, AROCLOR 1254 (10%), Method: PREINCUBATION) “inactive; negative”; (Test System: AMES SALMONELLA TYPHIMURIUM, Strain/Indicator: TA2638, Metabolic Activation: NONE, Method: STANDARD PLATE) “inactive; negative”; (Test System: E. COLI, Strain/Indicator: WP2 (HCR), Metabolic Activation: NONE, Method: STANDARD PLATE) “inactive; negative”; (Test System: E. COLI, Strain/Indicator: WP2 (HCR), Metabolic Activation: S-9, Method: STANDARD PLATE) “inactive; negative”; (Test System: E. COLI, Strain/Indicator: WP2 (PKM101), Metabolic Activation: NONE, Method: STANDARD PLATE) “inactive; negative”. The mutagenic call is “inactive; negative” (Test System: E. COLI, Strain/Indicator: WP2 UVRA (PKM101), Metabolic Activation: NONE, Method: STANDARD PLATE); “active; positive” (Test System: MOUSE LYMPHOMA, Strain/Indicator: L5178Y (TK+/TK-), Metabolic Activation: NONE, Method: MICROWELL); “active; positive” (Test System: MOUSE LYMPHOMA, Strain/Indicator: L5178Y (TK+/TK-), Metabolic Activation: S-9, Method: MICROWELL).
Regarding `c1ccc(COC[C@H]2CO2)cc1`, under setting [2], the mutagenic call is “active; positive”.
Turning to `CC1(C)SSC[C@@H](C(=O)O)NC1=O`, the mutagenic call under setting [3] was “inactive; negative”; the mutagenic call under setting [4] is “inactive; negative”; the mutagenic call under setting [5] is “inactive; negative”; the mutagenic call under setting [6] is “inactive; negative”; the mutagenic call (Test System: AMES SALMONELLA TYPHIMURIUM, Strain/Indicator: TA1538, Metabolic Activation: NONE, Method: PREINCUBATION) was “inactive; negative”; the mutagenic call (Test System: E. COLI, Strain/Indicator: WP2, Metabolic Activation: NONE, Method: PREINCUBATION) is “inactive; negative”. For the same compound, for the setting “Test System: E. COLI, Strain/Indicator: WP2 UVRA, Metabolic Activation: NONE, Method: PREINCUBATION”, the mutagenic call was “inactive; negative”.
On to `CCCCOCCOC(=O)COc1ccc(Cl)cc1Cl`, for which the mutagenic call reads like this: under setting [3], “inactive; negative”; (Test System: AMES SALMONELLA TYPHIMURIUM, Strain/Indicator: TA98, Metabolic Activation: RAT LIVER S-9, AROCLOR 1254, 10%, Method: PREINCUBATION) “inactive; negative”; under setting [4], “inactive; negative”; (Test System: AMES SALMONELLA TYPHIMURIUM, Strain/Indicator: TA100, Metabolic Activation: RAT LIVER S-9, AROCLOR 1254, 10%, Method: PREINCUBATION) “inactive; negative”; under setting [5], “inactive; negative”; (Test System: AMES SALMONELLA TYPHIMURIUM, Strain/Indicator: TA1535, Metabolic Activation: RAT LIVER S-9, AROCLOR 1254, 10%, Method: PREINCUBATION) “inactive; negative”. Moreover, the mutagenic call is “inactive; negative” under setting [6]; “inactive; negative” (Test System: AMES SALMONELLA TYPHIMURIUM, Strain/Indicator: TA1537, Metabolic Activation: RAT LIVER S-9, AROCLOR 1254, 10%, Method: PREINCUBATION); “inactive; negative” (Test System: UDS RAT HEPATOCYTES, Strain/Indicator: THYMIDINE INCORPORATION, Metabolic Activation: NONE, Method: AUTORADIOGRAPHY).
